For data set [1], the target named is HSD17B13 (Homo sapiens (Human), UniProt Q7Z5P4). The data set is described as follows: HSD17B13 enzymatic inhibition assay (150 nM or 50 nM HSD17B13). The following applies: 50 nM HSD17B13; read-out: Inhibition of 50 nM of HSD17B13 IC50. The format is biochemical.
A short description of data set [2]: Microsome stability assay, human liver microsomes. The format is in vitro ADME. The following applies: 1 μM compound, 0.5 mg/mL microsomal protein. In outline:
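Compound at 1 μM incubated at 37° C with pooled human or mouse liver microsomes (0.5 mg/mL protein) plus NADPH regenerating system, sampled at 0–60 min; a 60-min no-NADPH incubation also included. Single replicate; LC/MS/MS disappearance from analyte/internal standard peak area ratios, without standard curve.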

For data set [3], the target named is HSD17B2 (Homo sapiens (Human), UniProt P37059). The data set is described as follows: HSD17B2 enzymatic blocking assay. The format is biochemical. The settings on record: 1.8 μM Estradiol, 650 μM NAD; read-out: Inhibition of HSD17B2 IC50. On the procedure: To screen compounds of the disclosure for their ability to block HSD17B2 function, an enzymatic blocking assay was performed. For the assay, HSD17B2 activity was measured by detecting NADH formation from oxidation of Estradiol using a NADH Glo luminescence assay (Promega, #Cat. No. G9062). Compounds of the disclosure were evaluated in a dose titration assay where the compounds were titrated at 10-point dose curve using an Echo-555 liquid handling dispenser. HSD17B2 (SEQ ID NO: 3, expressed in mammalian cells) was added at a final concentration of 2 ng/μL in a buffer containing 50 mM Tris-HCl, pH 7.5, Pluronic F-127 0.05%, Tween20 0.01%, BSA 0.01% into a low volume white 384-well assay plate. Compounds were incubated with the enzyme for 15 min at 20° C. The assay reaction was then initiated by addition of 1.8 μM Estradiol substrate (Sigma, catalog #E2758-250MG, CAS: 50-28-2) and 650 μM NAD co-factor, and the reaction mixture was incubated for 45 min at 20° C. DMSO at a concentration of 0.5% was used as a negative control and a ‘no substrate’ control was used a positive control in the assay. Detection reagent was then added as per manufacturer's instructions, and the plate was subsequently incubated in the dark for 1 hour at room temperature, NADH generated was detected in the luminescence mode on the Envision Perkin Elmer plate reader. The IC50 values were determined using Dotmatics analysis software.

A short description of data set [4]: Microsome stability assay, mouse liver microsomes. The format is in vitro ADME. The following applies: 1 μM compound, 0.5 mg/mL microsomal protein; for microsomal CLint at 1 h, 1 µM / half-life at 1 h, 1 µM: mouse, mouse liver microsomes, pooled, NADPH, 37° C.; for microsomal CLint at 1 h, 1 µM: read-out: Microsome Stability Mouse liver microsomes Cl; for half-life at 1 h, 1 µM: read-out: Microsome Stability Mouse liver microsomes T½. As to the method: Compounds of the disclosure were screened in microsome stability assays. For the screen, test compounds were incubated at 37° C. with either human liver microsomes (Corning; #452117) or mouse liver microsomes (XenoTech; #M1000), pooled from multiple donors, at 1 μM in the presence of a NADPH regenerating system at 0.5 mg/mL microsomal protein. Positive controls included in the assay were testosterone (3A4 substrate), propafenone (2D6) and diclofenac (2C9). Samples were removed at different time points (0, 5, 10, 20, 30 and 60 minutes) and immediately mixed with cold acetonitrile containing internal standard (IS, 200 ng/mL tolbutamide and 200 ng/mL labetalol). Test compounds incubated with microsomes for 60 minutes without the NADPH regenerating system was also included. A single point for each test condition (n=1) was obtained, and samples were analyzed by LC/MS/MS. Disappearance of the test compound was assessed based on peak area ratios of analyte/IS (no standard curve).
(Liver microsomes are vesicles of endoplasmic reticulum, rich in cytochrome P450 enzymes.)

Where [5] appears, read: human, human liver microsomes, pooled, NADPH, 37° C., read-out: Microsome Stability Human liver microsomes Cl.
Setting [6] is: human, human liver microsomes, pooled, NADPH, 37° C., read-out: Microsome Stability Human liver microsomes T½.

SMILES strings stand for the structures.

Chain of HSD17B2 (P37059 other isoform, or with tags, fused parts or gaps): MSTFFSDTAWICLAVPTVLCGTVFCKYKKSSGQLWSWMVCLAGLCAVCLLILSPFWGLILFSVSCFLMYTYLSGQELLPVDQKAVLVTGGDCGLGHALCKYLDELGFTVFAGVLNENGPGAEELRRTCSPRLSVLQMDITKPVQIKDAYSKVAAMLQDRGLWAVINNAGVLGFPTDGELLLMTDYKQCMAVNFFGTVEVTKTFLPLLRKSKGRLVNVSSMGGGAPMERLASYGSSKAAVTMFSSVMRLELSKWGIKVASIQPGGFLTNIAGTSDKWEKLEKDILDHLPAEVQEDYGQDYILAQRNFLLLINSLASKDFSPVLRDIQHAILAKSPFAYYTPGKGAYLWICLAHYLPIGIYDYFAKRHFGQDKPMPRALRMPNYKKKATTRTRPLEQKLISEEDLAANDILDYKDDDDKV
Chain of HSD17B13 (Q7Z5P4 other isoform, or with tags, fused parts or gaps): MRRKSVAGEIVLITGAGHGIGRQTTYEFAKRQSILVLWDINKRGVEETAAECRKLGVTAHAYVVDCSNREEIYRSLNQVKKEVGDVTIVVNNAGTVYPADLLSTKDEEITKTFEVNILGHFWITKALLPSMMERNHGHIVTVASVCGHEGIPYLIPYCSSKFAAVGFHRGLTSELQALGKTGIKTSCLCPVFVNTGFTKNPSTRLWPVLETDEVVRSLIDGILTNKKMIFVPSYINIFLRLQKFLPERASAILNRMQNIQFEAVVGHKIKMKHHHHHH

One may read the IC50 as the point on the concentration scale where inhibition reaches its midpoint. With `O=C(NC1c2ccccc2Oc2ccccc21)c1ccc(C(F)(F)F)[nH]c1=O` [Compound 1A, 2-oxo-6-(trifluoromethyl)-N-(9H-xanthen-9-yl)-1,2-dihydropyridine-3-carboxamide], the figures for the half-inhibitory concentration (IC50) in data set [1] and in data set [3] were 530 nM and 14500 nM, respectively. For the same compound, the “Microsome Stability Human liver microsomes % Remaining @60 min” value in data set [2] is recorded as 1.00%. Moreover, the microsomal CLint at 1 h, 1 µM in data set [2] (setting [5]) is 176 µL/min/mg. Also, the half-life at 1 h, 1 µM in data set [2] (setting [6]) came to 7.87 min.

Take `C=Cc1ccc(C(NC(=O)c2ccc(C(F)(F)F)[nH]c2=O)c2ccccc2)cc1` (stereo not shown) [Compound 3A, 2-oxo-N-(phenyl(4-vinylphenyl)methyl)-6-(trifluoromethyl)-1,2-dihydropyridine-3-carboxamide]: the IC50 in data set [1] stood at 1300 nM; in data set [3], 13200 nM.

As to `CCc1ccc(C(NC(=O)c2ccc(C(F)(F)F)[nH]c2=O)c2ccccc2)cc1` (stereo not shown) [Compound 4A, N-((4-ethylphenyl)(phenyl)methyl)-2-oxo-6-(trifluoromethyl)-1,2-dihydropyridine-3-carboxamide], the IC50 was 550 nM in data set [1] and 11600 nM in data set [3]. In addition, the “Microsome Stability Human liver microsomes % Remaining @60 min” value in data set [2] is given as 1.12%. Besides, in data set [2] (setting [5]), the microsomal CLint at 1 h, 1 µM came out at 156 µL/min/mg. In addition, in data set [2] (setting [6]), the half-life at 1 h, 1 µM was 8.86 min.

For `O=C(NC(c1ccc(C(F)(F)F)cc1)c1ccc(C(F)(F)F)cc1)c1ccc(C(F)(F)F)[nH]c1=O` [Compound 14, N-(bis(4-(trifluoromethyl)phenyl)methyl)-2-oxo-6-(trifluoromethyl)-1,2-dihydropyridine-3-carboxamide], the results for the IC50 in data set [1] and in data set [3] were 2810 nM and 14200 nM, respectively. Further, the “Microsome Stability Human liver microsomes % Remaining @60 min” value in data set [2] amounted to 100.00%. Further, in data set [2] (setting [5]), the microsomal CLint at 1 μM is < 9.6 µL/min/mg. Moreover, the half-life at 1 μM in data set [2] (setting [6]) is > 145 min.

For the compound `O=C(NC(c1ccccc1)c1ccc(O)cc1)c1ccc(C(F)(F)F)[nH]c1=O` (stereo not shown) [Compound 19, N-((4-hydroxyphenyl)(phenyl)methyl)-2-oxo-6-(trifluoromethyl)-1,2-dihydropyridine-3-carboxamide], the concentration for half-maximal inhibition (IC50) in data set [1] came out at 1910 nM; in data set [3] it was 33600 nM. The “Microsome Stability Human liver microsomes % Remaining @60 min” value in data set [2] is 49.80%. The microsomal CLint at 1 h, 1 µM in data set [2] (setting [5]) turned out to be 20.2 µL/min/mg. Also, the half-life at 1 h, 1 µM in data set [2] (setting [6]) worked out at 68.6 min.

Regarding `O=C(NC(Cc1ccccc1)c1ccc(Cl)cc1)c1ccc(C(F)(F)F)[nH]c1=O` (stereo not shown) [Compound 19A, N-(1-(4-chlorophenyl)-2-phenylethyl)-2-oxo-6-(trifluoromethyl)-1,2-dihydropyridine-3-carboxamide], the figures for the IC50 in data set [1] and in data set [3] were 990 nM and 13200 nM, respectively. Further, the “Microsome Stability Human liver microsomes % Remaining @60 min” value in data set [2] was found to be 8.05%. Also, in data set [2] (setting [5]), the microsomal CLint at 1 h, 1 µM is 88.6 µL/min/mg. Also, the half-life at 1 h, 1 µM in data set [2] (setting [6]) came out at 15.6 min.

Take `COc1ccc(C(C)(NC(=O)c2ccc(C(F)(F)F)[nH]c2=O)c2ccc(OC)cc2)cc1` [Compound 20A, N-(1,1-bis(4-methoxyphenyl)ethyl)-2-oxo-6-(trifluoromethyl)-1,2-dihydropyridine-3-carboxamide]: the values for the IC50 in data set [1] and in data set [3] were 1560 nM and 2270 nM, respectively.

Take `O=C(NC(c1ccc(OC(F)F)cc1)c1ccc(OC(F)F)cc1)c1ccc(C(F)(F)F)[nH]c1=O` [Compound 22, N-(bis(4-(difluoromethoxy)phenyl)methyl)-2-oxo-6-(trifluoromethyl)-1,2-dihydropyridine-3-carboxamide]: the values for the IC50 in data set [1] and in data set [3] were 890 nM and 12800 nM, respectively.

As to `COc1ccc(C(NC(=O)c2ccc(C(F)(F)F)[nH]c2=O)c2ccc(OC)cc2)cc1` [Compound 24, N-(bis(4-methoxyphenyl)methyl)-2-oxo-6-(trifluoromethyl)-1,2-dihydropyridine-3-carboxamide], the half-inhibitory concentration (IC50) in data set [1] was 600 nM; in data set [3], 20600 nM. In addition, the “Microsome Stability Human liver microsomes % Remaining @60 min” value in data set [2] was 2.00%. Further, in data set [2] (setting [5]), the microsomal CLint at 1 h, 1 µM came out at 131 µL/min/mg. Besides, the half-life at 1 h, 1 µM in data set [2] (setting [6]) worked out at 10.6 min.

`O=C(NC1c2ccc(F)cc2-c2cc(F)ccc21)c1ccc(C(F)(F)F)[nH]c1=O` [Compound 44, N-(3,6-difluoro-9H-fluoren-9-yl)-2-oxo-6-(trifluoromethyl)-1,2-dihydropyridine-3-carboxamide]: the IC50 amounted to 530 nM in data set [1] and 12800 nM in data set [3].

`COc1ccc2c(c1)-c1cc(OC)ccc1C2NC(=O)c1ccc(C(F)(F)F)[nH]c1=O` [Compound 46, N-(3,6-dimethoxy-9H-fluoren-9-yl)-2-oxo-6-(trifluoromethyl)-1,2-dihydropyridine-3-carboxamide]: the half-inhibitory concentration (IC50) in data set [1] is 1070 nM; in data set [3] it was 38100 nM.

Consider `O=C(NC1CCc2ccccc21)c1ccc(C(F)(F)F)[nH]c1=O` (stereo not shown) [Compound 63, N-(2,3-dihydro-1H-inden-1-yl)-2-oxo-6-(trifluoromethyl)-1,2-dihydropyridine-3-carboxamide], for which the IC50 in data set [1] is 3680 nM; in data set [3], > 100000 nM.

Turning to `CCC1Cc2cc(OC)ccc2C(NC(=O)c2ccc(C(F)(F)F)[nH]c2=O)C1` (stereo not shown) [Compound 390, N-(3-ethyl-6-methoxy-1,2,3,4-tetrahydronaphthalen-1-yl)-2-oxo-6-(trifluoromethyl)-1,2-dihydropyridine-3-carboxamide], the IC50 in data set [1] was found to be 70 nM. Besides, in data set [4], the “Microsome Stability Mouse liver microsomes % Remaining @60 min” value turned out to be 62.80%; the microsomal CLint at 1 h, 1 µM came to 16.8 µL/min/mg; the half-life at 1 h, 1 µM came to 82.3 min. For the same compound, the “Microsome Stability Human liver microsomes % Remaining @60 min” value in data set [2] amounted to 11%. Moreover, the microsomal CLint at 1 h, 1 µM in data set [2] (setting [5]) worked out at 151 µL/min/mg. Further, in data set [2] (setting [6]), the half-life at 1 h, 1 µM was found to be 9.15 min.

In the case of `Cc1ccc(C(CC2CC2)NC(=O)c2ccc(C(F)(F)F)[nH]c2=O)cc1` (stereo not shown) [Compound 401, N-(2-cyclopropyl-1-(p-tolyl)ethyl)-2-oxo-6-(trifluoromethyl)-1,2-dihydropyridine-3-carboxamide], the concentration for half-maximal inhibition (IC50) in data set [1] was found to be 350 nM. In data set [4], the “Microsome Stability Mouse liver microsomes % Remaining @60 min” value amounted to 4%. Also, the microsomal CLint at 1 h, 1 µM in data set [4] was determined as 182 µL/min/mg; in data set [2] (setting [5]) it was 463 µL/min/mg. Also, the half-life at 1 h, 1 µM in data set [4] came out at 7.61 min; in data set [2] (setting [6]) it was 2.99 min. Also, the “Microsome Stability Human liver microsomes % Remaining @60 min” value in data set [2] amounted to 1.80%.

With `CCC1CCc2cc(C)ccc2C1NC(=O)c1ccc(C(F)(F)F)[nH]c1=O` (stereo not shown) [Compound 543, N-(2-ethyl-6-methyl-1,2,3,4-tetrahydronaphthalen-1-yl)-2-oxo-6-(trifluoromethyl)-1,2-dihydropyridine-3-carboxamide], the IC50 in data set [1] turned out to be 50 nM. Also, in data set [4], the “Microsome Stability Mouse liver microsomes % Remaining @60 min” value amounted to 25.30%; the microsomal CLint at 1 h, 1 µM turned out to be 43.6 µL/min/mg; the half-life at 1 h, 1 µM turned out to be 31.8 min. In addition, the “Microsome Stability Human liver microsomes % Remaining @60 min” value in data set [2] turned out to be 0.36%. The microsomal CLint at 1 h, 1 µM in data set [2] (setting [5]) came out at 364 µL/min/mg. Besides, the half-life at 1 h, 1 µM in data set [2] (setting [6]) worked out at 3.81 min.

`Cc1ccc(C(CC2CCC2)NC(=O)c2ccc(C(F)(F)F)[nH]c2=O)cc1` (stereo not shown) [Compound 557, N-(2-cyclobutyl-1-(p-tolyl)ethyl)-2-oxo-6-(trifluoromethyl)-1,2-dihydropyridine-3-carboxamide]: the IC50 in data set [1] came out at 140 nM. In data set [4], the “Microsome Stability Mouse liver microsomes % Remaining @60 min” value is reported as 65%; the microsomal CLint at 1 h, 1 µM amounted to 14.4 µL/min/mg; the half-life at 1 h, 1 µM came to 96.3 min. Also, the “Microsome Stability Human liver microsomes % Remaining @60 min” value in data set [2] stood at 1%. The microsomal CLint at 1 h, 1 µM in data set [2] (setting [5]) is 437 µL/min/mg. In addition, the half-life at 1 h, 1 µM in data set [2] (setting [6]) turned out to be 3.17 min.

The values above are taken from patent US11957687B2 (REGENERON PHARMACEUTICALS, INC., priority 2019, dated 2024).
